# Reference: patent US8653274B2, “Compounds suitable as precursors to compounds that are useful for imaging amyloid deposits” (AstraZeneca AB, priority 2008, dated 2014)
# Target: amyloid deposits (Homo sapiens, UniProt P05067)
# Experiment: competition binding assay described in WO2007/086800
# Details: unlabeled compound
# Sequence of amyloid deposits (P05067 672-711 limits assumed): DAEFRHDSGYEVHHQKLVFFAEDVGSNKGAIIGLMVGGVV
compound,measurement,value
CNc1ccc(-c2cc3cc(O)ccc3o2)c(F)n1 [2-(2-Fluoro-6-methylamino-pyridin-3-yl)-benzofuran-5-ol],IC50,13 nM
